In patent publication US6706663B2, “Herbicidal 3-heterocyclic substituted benzisothiazole and benzisoxazole compounds” (Wyeth, priority 2000, dated 2004):

What was measured:
[1] = test system: ORYSAT (Rice, Tebonnet); test: Postemergence herbicidal evaluation; type: in vivo, Oryza sativa, (L.) Tebonnet
Method in brief: (§1)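 Seedlings grown about two weeks in flats, sprayed, then kept under standard greenhouse care. Rated visually 4–5 weeks after treatment on a 0–9 scale (stand, vigour, malformation, size, chlorosis, overall appearance) relative to untreated control; repeat tests averaged.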

[2] = test system: CYPSE (Cyperus serotinus); test: Flooded paddy, preemergence weed control; type: in vivo, Rottb.; settings: rated 3-4 weeks after treatment, 0-9 rating scale
Method in brief: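 Herbicidal effect was scored visually on a 0–9 scale against an untreated control 3–4 weeks after treatment. Compounds were applied preemergence as 50/50 v/v aqueous/acetone mixtures into flood water (1.5–3 cm deep over silt loam), at roughly 0.0080 to 0.1250 kg/ha active ingredient.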

[3] = test system: ABUTH (Abutilon theophrasti); test: Preemergence herbicidal evaluation; type: in vivo, Medic.; settings: preemergence, rated 4-5 weeks after treatment
[4] = test system: AMBEL (Ambrosia artemisifolia); test: Preemergence herbicidal evaluation; type: in vivo, L.; settings: preemergence, rated 4-5 weeks after treatment
Method in brief: (§2)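 Visual 0–9 rating versus control (stand, vigor, malformation, size, chlorosis, overall appearance), scored four to five weeks post-treatment. Preemergence spray of aqueous acetone solution onto freshly seeded soil cups; plants grown under conventional greenhouse care.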

[5] = test system: CHEAL (Chenopodium album); test: Preemergence herbicidal evaluation; type: in vivo, L.; settings: preemergence, rated 4-5 weeks after treatment
Method in brief: as §2

[6] = test system: CASOB (Cassia obtusifolia); test: Preemergence herbicidal evaluation; type: in vivo, L.; settings: preemergence, rated 4-5 weeks after treatment
Method in brief: as §2

[7] = test system: ZEAMX (Corn, Field); test: Postemergence herbicidal evaluation; type: in vivo, Zea mays, L.
Method in brief: as §1

[8] = test system: ORYSAT (Rice, Tebonnet); test: Preemergence herbicidal evaluation; type: in vivo, Oryza sativa, (L.) Tebonnet; settings: preemergence, rated 4-5 weeks after treatment
[9] = test system: TRZAWR (Wheat, Winter, cv Riband); test: Postemergence herbicidal evaluation; type: in vivo, Triticum aestivum
Method in brief: as §1

[10] = test system: GALAP (Galium aparine); test: Preemergence herbicidal evaluation; type: in vivo; settings: preemergence, rated 4-5 weeks after treatment
Method in brief: as §2

[11] = test system: SETVI (Setaria viridis); test: Preemergence herbicidal evaluation; type: in vivo, (L.) Beau; settings: preemergence, rated 4-5 weeks after treatment
Method in brief: as §2

[12] = test system: ECHCG (Echinochloa crus-galli); test: Preemergence herbicidal evaluation; type: in vivo, (L.) Beau; settings: preemergence, rated 4-5 weeks after treatment
Method in brief: as §2

[13] = test system: TRZAWR (Wheat, Winter, cv Riband); test: Preemergence herbicidal evaluation; type: in vivo, Triticum aestivum; settings: preemergence, rated 4-5 weeks after treatment
Method in brief: as §2

[14] = test system: SETVI (Setaria viridis); test: Postemergence herbicidal evaluation; type: in vivo, (L.) Beau
Method in brief: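 First, seedlings are raised in flats for about two weeks. Next, compound dispersed in 50/50 acetone/water with 0.5% TWEEN 20 is sprayed at 40 psi to deliver about 0.0040–1.000 kg/ha. Plants are then maintained in the greenhouse and rated 0-9 after four to five weeks.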

[15] = test system: IPOHE (Ipomoea hederacea); test: Postemergence herbicidal evaluation; type: in vivo, (L.) Jacq.
Method in brief: as §1

[16] = test system: ECHORC (Echinochloa oryzoides); test: Flooded paddy, preemergence weed control; type: in vivo, Echinochloa oryzoides (Ard.) Fritsch.; settings: rated 3-4 weeks after treatment, 0-9 rating scale
Method in brief: (§3)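 Flooded silt loam pots, seeds in upper 0.5 cm, water held 1.5–3 cm deep; greenhouse; visual 0-9 score vs control.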

[17] = test system: ECHCG (Echinochloa crus-galli); test: Postemergence herbicidal evaluation; type: in vivo, (L.) Beau
Method in brief: as §1

[18] = test system: MOOVA (Monochoria vaginalis); test: Flooded paddy, preemergence weed control; type: in vivo, Presl.; settings: rated 3-4 weeks after treatment, 0-9 rating scale
Method in brief: as §3

[19] = test system: GLXMAW (Soybean, Williams); test: Postemergence herbicidal evaluation; type: in vivo, Glycine max, (L.) Merr. cv Williams
Method in brief: as §1

Cn1c(C(F)(F)F)cc(=O)n(-c2ccc3snc(C4OCCCO4)c3c2)c1=O [Compound 28, 3-(3-m-dioxan-2-yl-1,2-benzisothiazol-5-yl)-1-methyl-6-(trifluoromethyl)uracil]
Postemergence herbicidal rating, ORYSAT ([1]; rate 0.0320 kg/ha): 5.3 | Postemergence herbicidal rating, ORYSAT ([1]; rate 0.0620 kg/ha): 6.5 | herbicidal rating, CYPSE ([2]; rate 0.0320 kg/ha): 9.0 | herbicidal rating, CYPSE ([2]; rate 0.1250 kg/ha): 9.0 | ABUTH preemergence herbicidal rating ([3]; Rate 0.0620 kg/ha): 9.0 | ABUTH preemergence herbicidal rating ([3]; Rate 0.1250 kg/ha): 9.0 | ABUTH preemergence herbicidal rating ([3]; Rate 0.2500 kg/ha): 9.0 | AMBEL preemergence herbicidal rating ([4]; Rate 0.0620 kg/ha): 9.0 | AMBEL preemergence herbicidal rating ([4]; Rate 0.1250 kg/ha): 9.0 | AMBEL preemergence herbicidal rating ([4]; Rate 0.2500 kg/ha): 9.0 | CHEAL preemergence herbicidal rating ([5]; Rate 0.0620 kg/ha): 9.0 | CHEAL preemergence herbicidal rating ([5]; Rate 0.1250 kg/ha): 9.0 | CHEAL preemergence herbicidal rating ([5]; Rate 0.2500 kg/ha): 9.0 | CASOB preemergence herbicidal rating ([6]; Rate 0.0620 kg/ha): 9.0 | CASOB preemergence herbicidal rating ([6]; Rate 0.1250 kg/ha): 9.0 | CASOB preemergence herbicidal rating ([6]; Rate 0.2500 kg/ha): 9.0 | Postemergence herbicidal rating, ZEAMX ([7]; rate 0.0320 kg/ha): 5.8 | Postemergence herbicidal rating, ZEAMX ([7]; rate 0.0620 kg/ha): 6.3 | ORYSAT preemergence herbicidal rating ([8]; Rate 0.0620 kg/ha): 9.0 | ORYSAT preemergence herbicidal rating ([8]; Rate 0.1250 kg/ha): 9.0 | ORYSAT preemergence herbicidal rating ([8]; Rate 0.2500 kg/ha): 9.0 | Postemergence herbicidal rating, TRZAWR ([9]; rate 0.0320 kg/ha): 5.0 | Postemergence herbicidal rating, TRZAWR ([9]; rate 0.0620 kg/ha): 6.5 | GALAP preemergence herbicidal rating ([10]; Rate 0.0620 kg/ha): 9.0 | GALAP preemergence herbicidal rating ([10]; Rate 0.1250 kg/ha): 9.0 | GALAP preemergence herbicidal rating ([10]; Rate 0.2500 kg/ha): 9.0 | SETVI preemergence herbicidal rating ([11]; Rate 0.0620 kg/ha): 9.0 | SETVI preemergence herbicidal rating ([11]; Rate 0.1250 kg/ha): 9.0 | SETVI preemergence herbicidal rating ([11]; Rate 0.2500 kg/ha): 9.0 | ECHCG preemergence herbicidal rating ([12]; Rate 0.0620 kg/ha): 9.0 | ECHCG preemergence herbicidal rating ([12]; Rate 0.1250 kg/ha): 9.0 | ECHCG preemergence herbicidal rating ([12]; Rate 0.2500 kg/ha): 9.0 | TRZAWR preemergence herbicidal rating ([13]; Rate 0.0620 kg/ha): 9.0 | TRZAWR preemergence herbicidal rating ([13]; Rate 0.1250 kg/ha): 9.0 | TRZAWR preemergence herbicidal rating ([13]; Rate 0.2500 kg/ha): 9.0 | Postemergence herbicidal rating, SETVI ([14]; rate 0.0320 kg/ha): 8.3 | Postemergence herbicidal rating, SETVI ([14]; rate 0.0620 kg/ha): 8.5 | Postemergence herbicidal rating, IPOHE ([15]; rate 0.0320 kg/ha): 8.3 | Postemergence herbicidal rating, IPOHE ([15]; rate 0.0620 kg/ha): 9.0 | herbicidal rating, ECHORC ([16]; rate 0.0080 kg/ha): 5.0 | herbicidal rating, ECHORC ([16]; rate 0.0320 kg/ha): 8.5 | herbicidal rating, ECHORC ([16]; rate 0.1250 kg/ha): 9.0 | Postemergence herbicidal rating, ECHCG ([17]; rate 0.0320 kg/ha): 4.3 | Postemergence herbicidal rating, ECHCG ([17]; rate 0.0620 kg/ha): 8.5 | herbicidal rating, MOOVA ([18]; rate 0.0080 kg/ha): 9.0 | herbicidal rating, MOOVA ([18]; rate 0.0320 kg/ha): 9.0 | herbicidal rating, MOOVA ([18]; rate 0.1250 kg/ha): 9.0 | Postemergence herbicidal rating, GLXMAW ([19]; rate 0.0320 kg/ha): 9.0 | Postemergence herbicidal rating, GLXMAW ([19]; rate 0.0620 kg/ha): 9.0

CC(=O)N1CCSC1c1nsc2ccc(-n3c(=O)cc(C(F)(F)F)n(C)c3=O)cc12 (centres unmarked) [Compound 29, 3-acetyl-2-[5-[3,6-dihydro-3-methyl-2,6-dioxo-4-(trifluoromethyl)-1(2H)-pyrimidinyl]-1,2-benzisothiazol-3-yl]thiazolidine]
Postemergence herbicidal rating, ORYSAT ([1]; rate 0.0320 kg/ha): 3.0 | Postemergence herbicidal rating, ORYSAT ([1]; rate 0.0620 kg/ha): 3.0 | herbicidal rating, CYPSE ([2]; rate 0.0320 kg/ha): 0.0 | herbicidal rating, CYPSE ([2]; rate 0.1250 kg/ha): 6.0 | ABUTH preemergence herbicidal rating ([3]; Rate 0.0620 kg/ha): 8.0 | ABUTH preemergence herbicidal rating ([3]; Rate 0.1250 kg/ha): 9.0 | ABUTH preemergence herbicidal rating ([3]; Rate 0.2500 kg/ha): 9.0 | AMBEL preemergence herbicidal rating ([4]; Rate 0.0620 kg/ha): 7.0 | AMBEL preemergence herbicidal rating ([4]; Rate 0.1250 kg/ha): 8.0 | AMBEL preemergence herbicidal rating ([4]; Rate 0.2500 kg/ha): 9.0 | CHEAL preemergence herbicidal rating ([5]; Rate 0.0620 kg/ha): 9.0 | CHEAL preemergence herbicidal rating ([5]; Rate 0.1250 kg/ha): 9.0 | CHEAL preemergence herbicidal rating ([5]; Rate 0.2500 kg/ha): 9.0 | CASOB preemergence herbicidal rating ([6]; Rate 0.0620 kg/ha): 3.5 | CASOB preemergence herbicidal rating ([6]; Rate 0.1250 kg/ha): 6.5 | CASOB preemergence herbicidal rating ([6]; Rate 0.2500 kg/ha): 8.0 | Postemergence herbicidal rating, ZEAMX ([7]; rate 0.0320 kg/ha): 6.0 | Postemergence herbicidal rating, ZEAMX ([7]; rate 0.0620 kg/ha): 6.0 | ORYSAT preemergence herbicidal rating ([8]; Rate 0.0620 kg/ha): 4.0 | ORYSAT preemergence herbicidal rating ([8]; Rate 0.1250 kg/ha): 5.0 | ORYSAT preemergence herbicidal rating ([8]; Rate 0.2500 kg/ha): 6.5 | Postemergence herbicidal rating, TRZAWR ([9]; rate 0.0320 kg/ha): 4.5 | Postemergence herbicidal rating, TRZAWR ([9]; rate 0.0620 kg/ha): 4.5 | GALAP preemergence herbicidal rating ([10]; Rate 0.0620 kg/ha): 3.0 | GALAP preemergence herbicidal rating ([10]; Rate 0.1250 kg/ha): 7.0 | GALAP preemergence herbicidal rating ([10]; Rate 0.2500 kg/ha): 9.0 | SETVI preemergence herbicidal rating ([11]; Rate 0.0620 kg/ha): 6.5 | SETVI preemergence herbicidal rating ([11]; Rate 0.1250 kg/ha): 7.5 | SETVI preemergence herbicidal rating ([11]; Rate 0.2500 kg/ha): 9.0 | ECHCG preemergence herbicidal rating ([12]; Rate 0.0620 kg/ha): 5.5 | ECHCG preemergence herbicidal rating ([12]; Rate 0.1250 kg/ha): 6.5 | ECHCG preemergence herbicidal rating ([12]; Rate 0.2500 kg/ha): 8.0 | TRZAWR preemergence herbicidal rating ([13]; Rate 0.0620 kg/ha): 2.0 | TRZAWR preemergence herbicidal rating ([13]; Rate 0.1250 kg/ha): 8.0 | TRZAWR preemergence herbicidal rating ([13]; Rate 0.2500 kg/ha): 8.0 | Postemergence herbicidal rating, SETVI ([14]; rate 0.0320 kg/ha): 0.0 | Postemergence herbicidal rating, SETVI ([14]; rate 0.0620 kg/ha): 5.0 | Postemergence herbicidal rating, IPOHE ([15]; rate 0.0320 kg/ha): 9.0 | Postemergence herbicidal rating, IPOHE ([15]; rate 0.0620 kg/ha): 9.0 | herbicidal rating, ECHORC ([16]; rate 0.0080 kg/ha): 0.0 | herbicidal rating, ECHORC ([16]; rate 0.0320 kg/ha): 7.0 | herbicidal rating, ECHORC ([16]; rate 0.1250 kg/ha): 9.0 | Postemergence herbicidal rating, ECHCG ([17]; rate 0.0320 kg/ha): 0.0 | Postemergence herbicidal rating, ECHCG ([17]; rate 0.0620 kg/ha): 2.0 | herbicidal rating, MOOVA ([18]; rate 0.0080 kg/ha): 0.0 | herbicidal rating, MOOVA ([18]; rate 0.0320 kg/ha): 9.0 | herbicidal rating, MOOVA ([18]; rate 0.1250 kg/ha): 9.0 | Postemergence herbicidal rating, GLXMAW ([19]; rate 0.0320 kg/ha): 7.5 | Postemergence herbicidal rating, GLXMAW ([19]; rate 0.0620 kg/ha): 8.0
